Patent publication US6376175B1, “Methods of discovering chemicals capable of functioning as gene expression modulators” (OSI Pharmaceuticals, Inc., priority 1989, dated 2002)

Experiments:
Assay type in all cases: cell-based
[1] = system: mouse mammary tumor virus (MMTV) promoter; details: for MMTV fold induction relative to solvent control: Table 2 A) transcriptional activators; for MMTV fold induction relative to solvent control / MMTV fold inhibition relative to solvent control: M10 cells, 6 hours, high-throughput screen; for MMTV fold inhibition relative to solvent control: Table 2 B) transcriptional inhibitors; for effect of steroids on luciferase expression in the MMTV reporter cell line M10: FIG. 43
Source text: NIH/3T3 fibroblast cells (ATCC number CRL 1658) were used for transfection of plasmids containing the mouse mammary tumor virus (MMTV) promoter linked to firefly luciferase coding sequences (see below). Cells were propagated in Dulbecco's modified Eagle's medium (DMEM) obtained from Gibco, Grand Island, N.Y. and supplemented with 10% FCS. For high-throughput (HTP) screening, transfected NIH/3T3 clones were transferred to serum free defined medium consisting of Iscove's modified Eagle's medium (IMEM) and Ham's F12 medium (1:1) supplemented with growth factors, hormones and nutrients as described previously (43).
The firefly luciferase gene was removed from the plant expression plasmid pDO432 (33) (FIG. 1) as a 1.9 kb BamHI fragment and cloned into the BamHI site of pSVL (Pharmacia, Piscataway, N.J.), a mammalian expression vector containing the SV40 promoter. The resulting plasmid (pSVLuci; FIG. 2) was digested with XhoI and SalI to produce a 2.4 kb fragment containing the luciferase coding sequences and the SV40 late polyadenylation site. This fragment was inserted into the XhoI site of pMSG (Pharmacia, Piscataway, N.J.), a eukaryotic expression vector containing the MMTV promoter. The resulting MMTV promoter-luciferase fusion plasmid (pMLuci; FIG. 3) was used to transfect NIH/3T3 cells as described below (section E1). Similar constructs can be made using luciferase vectors from Clontech (Palo Alto, Calif.).
pMluci (FIG. 3) and pSV2Neo, an antibiotic resistance plasmid (34), were co-transfected into NIH/3T3 mouse fibroblast cells using the calcium phosphate precipitation method (15) with a commercially available kit (Pharmacia, Piscataway N.J.). Two days later, cells were transferred to media containing 0.4 mg/ml G418 and were grown for an additional 10-14 days. G418-resistant clones were isolated by standard methods. Once sufficient cell numbers were obtained, clones were analyzed based on several criteria: constitutive luciferase production, induction of luciferase expression by dexamethasone (1 μm, Sigma, St. Louis, Mo.), satisfactory attachment to microtiter plates used in the high-throughput screen (see Section G) and acceptable standard deviation in multiple luciferase expression assays (see below for assay protocol). This analysis was carried out using the luciferase assay conditions described in sections F and G. Of the clones which satisfied the above criteria for the high throuphput screen, one clone, M10, was selected for use.
(§1) Cell plating: Dynatech Microlite 96 well plates were custom pretreated for cell attachment by Dynatech Laboratories, Inc. (Chantilly, Va.). Alternatively, the 96 well plates were treated with 50 µl per well of human fibronectin (hFN, 15 µg/ml in PBS, Collaborative Research, Bedford, Mass.) overnight at 37 C. hFN-treated plates were washed with PBS using an Ultrawash 2 Microplate Washer (Dynatech Labs), to remove excess hFN prior to cell plating. M10, 532, and G21 cells maintained in their respective serum media (with 0.2 mg/ml G418) were washed with PBS, harvested by trypsinization, and counted using a hemocytometer and the Trypan Blue exclusion method according to protocols provided by Sigma, St. Louis, Mo. Chemical Company. Cells were then diluted into serum free defined media (with 0.2 mg/ml G418), and 0.2 ml of cell suspension per well was plated onto Dynatech treated plates (532 and G21) or hFN-treated plates (M10) using a Cetus Pro/Pette (Cetus, Emeryville Calif.). Plates were incubated overnight at 37 C in a humidified 5% CO2 atmosphere.
(§2) Addition of Chemicals to Cells: Chemicals from the Oncogene Science file were dissolved in DMSO at concentrations of 3-30 mg/ml. A liquid handling laboratory work station (RSP 5052, Tecan U.S. Chapel Hill, N.C.) was used to dilute the chemicals (three dilutions; 5 fold, 110 fold, and 726 fold). 10 11 of each dilution were added to each of quadruplicate samples of cells contained in the wells of 96-well Dyantech Microlite Plates. […]

[2] = system: human growth hormone promoter; details: for hGH fold induction relative to solvent control: Table 2 A) transcriptional activators; for hGH fold induction relative to solvent control / hGH fold inhibition relative to solvent control: 532 cells, 6 hours, high-throughput screen; for hGH fold inhibition relative to solvent control: Table 2 B) transcriptional inhibitors
Source text: A rat pituitary cell line, designated GC, (4, 25) was used for transfection of plasmids containing the human growth hormone promoter (see below) and was maintained in DMEM and Ham's F12 medium (1:1), supplemented with 12.5% FCS. For HTP screening, transfected GC clones were transferred to serum free defined medium consisting of DMEM and Ham's F12 medium (1:1) supplemented with growth factors, hormones and nutrients as described previously (17, 5).
The SalI-XhoI fragment of pSVLuci (FIG. 2) containing the luciferase coding sequences and the SV40 late polyadenylation site was inserted into pUC 8 (Biorad, Richmond, Calif.), which has been linearized by a SmaI/HinCII digestion and ligated to XhoI linkers (New England Biolabs, Beverly, Mass.). The new plasmid thus generated (pUXLuci; FIG. 4) was linearized by XhoI digestion followed by incubation with the Klenow fragment of E. coli DNA polymerase and the four deoxyribonucleotides to fill in the single-stranded ends of the vector. This linear (5.1 KB) form of pUXLuci was then ligated to the filled-in 550 bP HindIII-XbaI fragment of the plasmid phGH:CAT (FIG. 5) (25). Human growth hormone promoter sequences located on the HindIII-XbaI fragment were thus fused to the luciferase coding sequences located on pUXLuci generating the plasmid phGH-Luci (FIG. 6), which was used in transfections of GC cells as described below (Section E2).
phGH-LUCI (FIG. 6) and pRSVNeo, an antibiotic resistance plasmid (14), were co-transfected into GC rat pituitary cells as described above. Selection of G418-resistant cell clones was described above except for using a concentration of 0.2 mg/ml G418. Analysis of the cell clones was performed as above, except that known inducers of hGH expression (10-100 nM rat growth hormone releasing factor (rGRF, Bachem, Torrance, Calif.) and 10 μm forskolin (Sigma, St. Louis, Mo.) were used in place of dexamethasone. One clone, 532, was selected for further use in the high throughput screen.
as §1
Addition of Chemicals to Cells: Chemicals from the Oncogene Science file were dissolved in DMSO at concentrations of 3-30 mg/ml. A liquid handling laboratory work station (RSP 5052, Tecan U.S. Chapel Hill, N.C.) was used to dilute the chemicals (three dilutions; 5 fold, 110 fold, and 726 fold). 10 11 of each dilution were added to each of quadruplicate samples of cells contained in the wells of 96-well Dyantech Microlite Plates. Cell plates were then shaken on a microplate shaker (Dyantech, medium setting, 30 sec.) and incubated for 6 hours at 37 C, 5% CO2.
Bioluminescence Assay: After incubation with OSI-file chemicals, cell plates were washed 3 times with PBS using an Ultrawash 2 Microplate Washer (Dyantech Labs) and 75 µl of Lysis Buffer 2 were added to each well (Lysis Buffer 2 is the same as Lysis buffer 1 exept that the ATP and DTT concentrations were changed to 2.67 mM and 133 mM, respectively). […]

human G-CSF promoter = details: for GCSF fold induction relative to solvent control: Table 2 A) transcriptional activators; for GCSF fold induction relative to solvent control / GCSF fold inhibition relative to solvent control: G21 cells, 6 hours, high-throughput screen; for GCSF fold inhibition relative to solvent control: Table 2 B) transcriptional inhibitors
Source text: A human bladder carcinoma cell line (U5637, ATCC number HTB 9) was used for transfection of plasmids containing the human Granulocyte-Colony Stimulating Factor (G-CSF) promoter (see below) and was maintained in RPMI medium supplemented with 10% FCS. For HTP screening, transfected 5637 clones were transferred to a serum free defined medium identical to that used for the NIH/3T3 clones.
The sequences of OL-1, OL-2 and OL-5 recognize the G-CSF promoter region, OL-4 recognizes the first intron/exon junction and OL-3 recognizes sequences within the second exon (32). One of the clones isolated from the leukocyte library using these oligonucleotide probes contains a 3.5 kb SalI-BamHI fragment of G-CSF genomic sequence consisting of 3.3 kb of promoter sequence and two hundred base pairs of the coding region. This fragment was inserted into the vector pGEM-7-Zf (Promega, Madison, Wis.) which had previously been digested with SalI/BamHI, resulting in the vector pJM710 (FIG. 7). pJM710 was then digested with PstI, and the resulting 1.6 kb fragment containing G-CSF upstream sequences and the first 15 bases of the G-CSF leader sequence was inserted into the PstI site of pGEM5-Luci (FIG. 8) to generate pG-Lucl (FIG. 9). This construct was then used for transfection of 5637 human bladder carcinoma cells as described below in section E3. pGEM5-Luci (FIG. 8) had previously been constructed by inserting the […]/SalI fragment from pSVLuci (FIG. 2) containing the luciferase coding sequence and the SV40 late polyadenylation signal into pGEM 5-Zf (Promega, Madison Wis.) digested with XhoI/SalI.
pG-LUC1 (FIG. 9) and pRSVNeo were co-transfected into 5637 human bladder carcinoma cells as described above. Selection of G418 resistant clones was as described above except for using a concentration of 0.1 mg/ml G418. Analysis of cell clones was performed as above except that a known inducer of G-CSF expression (1-5 µg/ml lipopolysaccharide (LPS), E. coli serotype 055:b5, Difco, Detroit, Mich. or Sigma, St. Louis, Mo.) was used in place of dexamethasone.
as §1, §2

Row | Compound | MMTV fold induction relative to solvent control [1] | hGH fold induction relative to solvent control [2] | GCSF fold induction relative to solvent control (human G-CSF promoter) | also measured
1 | CC(CCl)CBr (single isomer, unassigned) [Chemical 2096] | 0.89 fold | 0.61 fold | 3.27 fold | –
2 | Cc1cc(-c2ccc(S(=O)(=O)[O-])cc2)c2ccc3c(-c4ccc(S(=O)(=O)[O-])cc4)cc(C)nc3c2n1.O.[Na+].[Na+] [Chemical 189] | 2.80 fold | 1.47 fold | 1.06 fold | –
3 | Nc1nc(=O)n(C2CC(O)C(CO)O2)cc1Br (stereo not shown) [Chemical 542] | 1.26 fold | 1.08 fold | 6.28 fold | –
4 | O=c1[nH]c(=O)n(C2CC(O)C(CO)O2)cc1Br (stereo not shown) [Chemical 543] | 0.98 fold | 0.72 fold | 7.17 fold | –
5 | O=C(OC(C(=O)O)C(OC(=O)c1ccccc1)C(=O)O)c1ccccc1 (stereo not shown) [Chemical 578] | – | – | – | MMTV fold inhibition relative to solvent control [1]: 0.91 fold; hGH fold inhibition relative to solvent control [2]: 4.00 fold; GCSF fold inhibition relative to solvent control (human G-CSF promoter): 0.65 fold
6 | C1CCNCC1 [Chemical 759] | – | – | – | GCSF fold inhibition relative to solvent control (human G-CSF promoter): 0.64 fold
7 | Nc1ccc2nc3ccc(N)cc3[s+]c2c1 [Chemical 836] | 0.58 fold | 0.23 fold | 3.20 fold | –
8 | CC1(C)OC2CC3C4CCC5=CC(=O)C=CC5(C)C4(F)C(O)CC3(C)C2(C(=O)CO)O1 (stereo not shown) [Chemical 848] | 2.43 fold | 1.28 fold | 0.75 fold | –
9 | CC1(C(=O)OCC(F)(F)C(F)(F)C(F)(F)C(F)(F)C(F)(F)C(F)F)CCC(C(=O)OCC(F)(F)C(F)(F)C(F)(F)C(F)(F)C(F)(F)C(F)F)C1(C)C (stereo not shown) [Chemical 1592] | 1.34 fold | 0.74 fold | 3.20 fold | –
10 | CC1(C)C2CCC1(C)C(O)C2 (stereo not shown) [Chemical 1635] | – | – | – | MMTV fold inhibition relative to solvent control [1]: 0.99 fold; hGH fold inhibition relative to solvent control [2]: 9.09 fold; GCSF fold inhibition relative to solvent control (human G-CSF promoter): 0.71 fold
11 | Cc1cc(=O)oc2c(CN(CC(=O)O)CC(=O)O)c(O)ccc12 [Chemical 1712] | – | – | – | GCSF fold inhibition relative to solvent control (human G-CSF promoter): 0.64 fold
12 | CC12CCC(CC1=O)C2(C)C (stereo not shown) [Chemical 1720] | – | – | – | MMTV fold inhibition relative to solvent control [1]: 0.66 fold; hGH fold inhibition relative to solvent control [2]: 4.76 fold; GCSF fold inhibition relative to solvent control (human G-CSF promoter): 0.65 fold
13 | C[C@]12CCC(=O)C=C1CC[C@@H]1[C@@H]2[C@@H](O)C[C@]2(C=O)[C@@H](C(=O)CO)CC[C@@H]12 [aldosterone, reference compound] | – | – | – | effect of steroids on luciferase expression in the MMTV reporter cell line M10 [1]: stimulates clone M10
14 | C[C@@H]1C[C@H]2[C@@H]3CCC4=CC(=O)C=C[C@]4(C)[C@@]3(F)[C@@H](O)C[C@]2(C)[C@@]1(O)C(=O)CO [dexamethasone, reference compound] | – | – | – | stimulation of clone M10 by known inducer ([1]; 1 μm dexamethasone): 11.6 fold
15 | CC(=O)[C@H]1CC[C@H]2[C@@H]3CCC4=CC(=O)CC[C@]4(C)[C@H]3CC[C@]12C [progesterone, reference compound] | – | – | – | effect of steroids on luciferase expression in the MMTV reporter cell line M10 [1]: did not
16 | lipopolysaccharide [reference compound] | – | – | – | stimulation of clone G21 by known inducer (human G-CSF promoter; 5 µg/ml lipopolysaccharide): 5.7 fold
17 | rat growth hormone releasing factor: rat growth hormone releasing factor (rGRF, Bachem), known inducer of hGH expression (HADAIFTSSYRRILGQLYARKLLHEIMNRQQGERNQEQRSRFN; Somatoliberin; UniProt P09916 31-73, looked up) [reference compound] | – | – | – | stimulation of clone 532 by known inducer ([2]; 100 nM rat growth hormone releasing factor): 2.2 fold
